Patent US20060235076A1, “Medicinal composition for treating infection with drug-resistant staphylococcus aureus” (priority 2003, published 2006)
Read-outs that look alike come from different tables or passages of the source.

Test system: MRSA and MSSA
Test: Antibacterial activity of gallic acid, various gallates and multivalent phenol derivatives alone (agar plate dilution method, MIC)
Assay type: cell-based, Staphylococcus aureus
Conditions: Staphylococcus aureus
Description: According to the agar plate dilution method defined by Japan Society of Chemotherapy, MIC (Minimum inhibitory concentration) was determined. CAMHA was prepared by adding 50 mg/l of Ca-ion, 25 mg/l of Mg-ion, and 2% of NaCl to Mueller-Hinton II Agar (MHA), and it was used as a medium for use in the measurement of sensitivity. The bacterial liquid was incubated at 37° C. overnight and diluted to 10^6 CFU/ml with saline.
MIC for gallic acid, various gallates and multivalent phenol derivatives alone with MRSA and MSSA were determined as described in experiment 2.

[1] = ATCC 6538 / MRSA / MSSA, ATCC6538, read-out: MIC alone
[2] = MSSA #1003, read-out: MIC alone
[3] = MSSA #1010, read-out: MIC alone
[4] = MSSA #1020, read-out: MIC alone
[5] = MSSA #1023, read-out: MIC alone
[6] = MSSA #1029, read-out: MIC alone
[7] = MSSA #1032, read-out: MIC alone
[8] = compound alone, over all strains of Table 3-1, read-out: MIC50

O=C(O)c1cc(O)c(O)c(O)c1 [Gallic acid, gallic acid, reference compound]
31.3 µg/mL: MIC (MRSA #1, read-out: MIC alone) | MIC (MRSA #3, read-out: MIC alone) | MIC (MRSA #5, read-out: MIC alone) | MIC (MRSA #6, read-out: MIC alone) | MIC (MRSA #8, read-out: MIC alone) | MIC (MRSA #9, read-out: MIC alone) | MIC (MRSA #10, read-out: MIC alone) | MIC (MRSA #16, read-out: MIC alone) | MIC [5] | MIC [6] | MIC [7]
62.5 µg/mL: MIC [1] | MIC (COL, read-out: MIC alone) | MIC (MRSA #2, read-out: MIC alone) | MIC (MRSA #4, read-out: MIC alone) | MIC (MRSA #7, read-out: MIC alone) | MIC (MRSA #12, read-out: MIC alone) | MIC (MRSA #17, read-out: MIC alone) | MIC (MRSA #18, read-out: MIC alone) | MIC (MRSA #20, read-out: MIC alone) | MIC (MRSA #21, read-out: MIC alone) | MIC (MRSA #22, read-out: MIC alone) | MIC (MRSA #24, read-out: MIC alone) | MIC [2] | MIC [3] | MIC [4] | MIC50 [8]

CCCC(=O)c1cc(O)c(O)cc1O [2′,4′,5′-trihydroxybutyrophenone]
62.5 µg/mL: MIC (MRSA #1, compound alone, read-out: MIC) | MIC (MRSA #3, compound alone, read-out: MIC) | MIC (MRSA #5, compound alone, read-out: MIC) | MIC (MRSA #6, compound alone, read-out: MIC) | MIC (MRSA #7, compound alone, read-out: MIC) | MIC (MRSA #9, compound alone, read-out: MIC) | MIC (MRSA #10, compound alone, read-out: MIC) | MIC (MRSA #16, compound alone, read-out: MIC) | MIC (MSSA #1023, compound alone, read-out: MIC) | MIC (MSSA #1029, compound alone, read-out: MIC) | MIC (MSSA #1032, compound alone, read-out: MIC)
125 µg/mL: MIC50 | MIC (ATCC 6538 / MRSA / MSSA) | MIC (COL, compound alone, read-out: MIC) | MIC (MRSA #2, compound alone, read-out: MIC) | MIC (MRSA #4, compound alone, read-out: MIC) | MIC (MRSA #8, compound alone, read-out: MIC) | MIC (MRSA #12, compound alone, read-out: MIC) | MIC (MRSA #17, compound alone, read-out: MIC) | MIC (MRSA #18, compound alone, read-out: MIC) | MIC (MRSA #20, compound alone, read-out: MIC) | MIC (MRSA #21, compound alone, read-out: MIC) | MIC (MRSA #22, compound alone, read-out: MIC) | MIC (MRSA #24, compound alone, read-out: MIC) | MIC (MSSA #1003, compound alone, read-out: MIC) | MIC (MSSA #1010, compound alone, read-out: MIC) | MIC (MSSA #1020, compound alone, read-out: MIC)

COC(=O)c1cc(O)c(O)c(O)c1 [Methyl gallate, methyl gallate]
125 µg/mL: MIC (MRSA #2, read-out: MIC alone) | MIC (MRSA #4, read-out: MIC alone) | MIC (MRSA #6, read-out: MIC alone) | MIC (MRSA #16, read-out: MIC alone) | MIC (MRSA #17, read-out: MIC alone) | MIC (MRSA #18, read-out: MIC alone) | MIC [5]
250 µg/mL: MIC [1] | MIC (COL, read-out: MIC alone) | MIC (MRSA #1, read-out: MIC alone) | MIC (MRSA #3, read-out: MIC alone) | MIC (MRSA #5, read-out: MIC alone) | MIC (MRSA #7, read-out: MIC alone) | MIC (MRSA #8, read-out: MIC alone) | MIC (MRSA #12, read-out: MIC alone) | MIC (MRSA #20, read-out: MIC alone) | MIC (MRSA #21, read-out: MIC alone) | MIC (MRSA #22, read-out: MIC alone) | MIC (MRSA #24, read-out: MIC alone) | MIC [2] | MIC [3] | MIC [4] | MIC [7] | MIC50 [8]
62.5 µg/mL: MIC (MRSA #9, read-out: MIC alone) | MIC (MRSA #10, read-out: MIC alone) | MIC [6]
